Assay results from PubChem BioAssay AID1963873 (Molecular Pharmacology Branch, DTP, NCI, 2024).

System: 276233-004-R-J1-PDC KRAS spheroids with HUVEC/MSC, viability
Assay: Anticancer human tumor 276233-004-R-J1-PDC patient-derived colon adenocarcinoma cell line growth inhibition [KRAS2]
Conditions: for IC50: curve of first compound; for viability, T/C: stronger effect = lower value
Procedure, shortened: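 Combination screen of spheroid viability in tumor-cell co-cultures with endothelial (HUVEC) and mesenchymal stem cell stroma. Each agent was tested in half-log dilutions, topping at clinical Cmax or at 10 microM without a known Cmax.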

[1] = second compound 0.1 µM, first compound 0.000316 µM
[2] = second compound 0.1 µM, first compound 0.001 µM
[3] = second compound 0.1 µM, first compound 0.00316 µM
[4] = second compound 0.1 µM, first compound 0.01 µM
[5] = second compound 0.1 µM, first compound 0.0316 µM
[6] = second compound 0.1 µM, first compound 0.1 µM
[7] = second compound 0.316 µM, first compound 0.000316 µM
[8] = second compound 0.316 µM, first compound 0.001 µM
[9] = second compound 0.316 µM, first compound 0.00316 µM
[10] = second compound 0.316 µM, first compound 0.01 µM
[11] = second compound 0.316 µM, first compound 0.0316 µM
[12] = second compound 0.316 µM, first compound 0.1 µM
[13] = second compound 1 µM, first compound 0.000316 µM
[14] = second compound 1 µM, first compound 0.001 µM
[15] = second compound 1 µM, first compound 0.00316 µM
[16] = second compound 1 µM, first compound 0.01 µM
[17] = second compound 1 µM, first compound 0.0316 µM
[18] = second compound 1 µM, first compound 0.1 µM
[19] = second compound 3.16 µM, first compound 0.000316 µM
[20] = second compound 3.16 µM, first compound 0.001 µM
[21] = second compound 3.16 µM, first compound 0.00316 µM
[22] = second compound 3.16 µM, first compound 0.01 µM
[23] = second compound 3.16 µM, first compound 0.0316 µM
[24] = second compound 3.16 µM, first compound 0.1 µM
[25] = second compound 10 µM, first compound 0.0316 µM
[26] = second compound 10 µM, first compound 0.1 µM
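Further: cells exposed to agents for seven days before viability read.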
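Wherever viability, T/C is given: 100% = DMSO vehicle control wells and lower values mean fewer viable cells.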

In the case of `Cn1ncnc1[C@H]1c2n[nH]c(=O)c3cc(F)cc(c23)N[C@@H]1c1ccc(F)cc1` + C=CC(=O)N1CCN(c2nc(OCC3CCCN3C)nc3c2CCN(c2cccc4cccc(C)c24)C3)CC1CC#N, the IC50 (second compound 0.0316 µM) is reported as over 100 nM, the IC50 (second compound 0.1 µM) is reported as over 100 nM and the IC50 (second compound 0.316 µM) is reported as over 100 nM. For the same molecule, the IC50 (second compound 1 µM) was over 100 nM, the IC50 (second compound 3.16 µM) was over 100 nM and the viability, T/C (second compound 0.0316 µM, first compound 0.000316 µM) was 111%. The viability, T/C (second compound 0.0316 µM, first compound 0.001 µM) was 107%, the viability, T/C (second compound 0.0316 µM, first compound 0.00316 µM) was 88% and the viability, T/C (second compound 0.0316 µM, first compound 0.01 µM) was 119%. The viability, T/C (second compound 0.0316 µM, first compound 0.0316 µM) was 97.7%, the viability, T/C (second compound 0.0316 µM, first compound 0.1 µM) was 92.8% and the viability, T/C [1] was 107%. The viability, T/C [2] was 113%, the viability, T/C [3] was 103% and the viability, T/C [4] was 98%. For the same molecule, the viability, T/C [5] was 77.3%, the viability, T/C [6] was 86.3% and the viability, T/C [7] was 100%. For the same molecule, the viability, T/C [8] was 107%, the viability, T/C [9] was 113% and the viability, T/C [10] was 115%. It also gave a viability, T/C [11] of 85.5%, a viability, T/C [12] of 91.6% and a viability, T/C [13] of 99%. It also gave a viability, T/C [14] of 118%, a viability, T/C [15] of 105% and a viability, T/C [16] of 116%. The viability, T/C [17] was 88.9%, the viability, T/C [18] was 110% and the viability, T/C [19] was 74.9%. It also gave a viability, T/C [20] of 77.6%, a viability, T/C [21] of 57.1% and a viability, T/C [22] of 52.6%. The viability, T/C [23] was 65% and the viability, T/C [24] was 72%.

`CC(C)NCC(C(=O)N1CCN(c2ncnc3c2C(C)CC3O)CC1)c1ccc(Cl)cc1` (stereo not given) + C=CC(=O)N1CCN(c2nc(=O)n(-c3c(C)ccnc3C(C)C)c3nc(-c4c(O)cccc4F)c(F)cc23)C(C)C1 gave an IC50 (second compound 0.1 µM) of over 10000 nM, an IC50 (second compound 0.316 µM) of over 10000 nM and an IC50 (second compound 1 µM) of over 10000 nM. The IC50 (second compound 3.16 µM) was 7170 nM, the IC50 (second compound 10 µM) was over 10000 nM and the viability, T/C [5] was 109%. The viability, T/C [6] was 128%, the viability, T/C (second compound 0.1 µM, first compound 0.316 µM) was 91.3% and the viability, T/C (second compound 0.1 µM, first compound 1 µM) was 74.2%. For the same molecule, the viability, T/C (second compound 0.1 µM, first compound 3.16 µM) was 73.6%, the viability, T/C (second compound 0.1 µM, first compound 10 µM) was 70.5% and the viability, T/C [11] was 89%. For the same molecule, the viability, T/C [12] was 71.7%, the viability, T/C (second compound 0.316 µM, first compound 0.316 µM) was 101% and the viability, T/C (second compound 0.316 µM, first compound 1 µM) was 80%. For the same molecule, the viability, T/C (second compound 0.316 µM, first compound 3.16 µM) was 77.3%, the viability, T/C (second compound 0.316 µM, first compound 10 µM) was 63.1% and the viability, T/C [17] was 106%. For the same molecule, the viability, T/C [18] was 102%, the viability, T/C (second compound 1 µM, first compound 0.316 µM) was 93.8% and the viability, T/C (second compound 1 µM, first compound 1 µM) was 76.9%. For the same molecule, the viability, T/C (second compound 1 µM, first compound 3.16 µM) was 81.1%, the viability, T/C (second compound 1 µM, first compound 10 µM) was 60.7% and the viability, T/C [23] was 125%. The viability, T/C [24] was 103%, the viability, T/C (second compound 3.16 µM, first compound 0.316 µM) was 67.4% and the viability, T/C (second compound 3.16 µM, first compound 1 µM) was 66.5%. For the same molecule, the viability, T/C (second compound 3.16 µM, first compound 3.16 µM) was 59.3%, the viability, T/C (second compound 3.16 µM, first compound 10 µM) was 57.5% and the viability, T/C [25] was 75%. It also gave a viability, T/C [26] of 79.1%, a viability, T/C (second compound 10 µM, first compound 0.316 µM) of 58.9% and a viability, T/C (second compound 10 µM, first compound 1 µM) of 66.8%. The viability, T/C (second compound 10 µM, first compound 3.16 µM) was 85.5% and the viability, T/C (second compound 10 µM, first compound 10 µM) was 64.4%.

With `CC(C)n1nc(-c2ccc3oc(N)nc3c2)c2c(N)ncnc21` + COc1cc2nc(C)nc(NC(C)c3cc(N)cc(C(F)(F)F)c3)c2cc1OC1CCOC1 the IC50 (second compound 0.1 µM) was over 100 nM, the IC50 (second compound 0.316 µM) was over 100 nM and the IC50 (second compound 1 µM) was 42.6 nM. The IC50 (second compound 3.16 µM) was over 100 nM, the IC50 (second compound 10 µM) was under 0.316 nM and the viability, T/C [1] was 90.1%. It also gave a viability, T/C [2] of 120%, a viability, T/C [3] of 76.7% and a viability, T/C [4] of 68%. The viability, T/C [5] was 64.7%, the viability, T/C [6] was 50.8% and the viability, T/C [7] was 109%. The viability, T/C [8] was 86.3%, the viability, T/C [9] was 71.6% and the viability, T/C [10] was 70.9%. For the same molecule, the viability, T/C [11] was 68%, the viability, T/C [12] was 56.5% and the viability, T/C [13] was 108%. The viability, T/C [14] was 92.5%, the viability, T/C [15] was 86.5% and the viability, T/C [16] was 56.8%. For the same molecule, the viability, T/C [17] was 54.5%, the viability, T/C [18] was 46% and the viability, T/C [19] was 76.7%. For the same molecule, the viability, T/C [20] was 83.4%, the viability, T/C [21] was 76.4% and the viability, T/C [22] was 61.9%. For the same molecule, the viability, T/C [23] was 63.2%, the viability, T/C [24] was 50.3% and the viability, T/C (second compound 10 µM, first compound 0.000316 µM) was 18.3%. For the same molecule, the viability, T/C (second compound 10 µM, first compound 0.001 µM) was 22.9%, the viability, T/C (second compound 10 µM, first compound 0.00316 µM) was 19.1% and the viability, T/C (second compound 10 µM, first compound 0.01 µM) was 32.5%. For the same molecule, the viability, T/C [25] was 32.2% and the viability, T/C [26] was 29.3%.
